Measurements reported in publication PMC4627284, “High-throughput simultaneous screen and counterscreen identifies homoharringtonine as synthetic lethal with von Hippel-Lindau loss in renal cell carcinoma” (Oncotarget, 2015).

What was measured:
[1] = tested on: VHL-mutant patient-derived ccRCC tumorgraft lines; assay: ccRCC tumorgraft model, six VHL-mutant tumorgraft lines; type: in vivo, NOD/SCID mice
Protocol: (§1) We selected 6 independently-derived ccRCC tumorgraft lines that were confirmed to have VHL mutation. The mice (3-5 mice per tumorgraft line) were treated with either HHT (0.7 mg/kg), vehicle (as a negative control), or rapamycin (0.5 mg/kg; as a positive control). In total, 65 tumorgraft bearing mice were evaluated for these experiments in time courses lasting ~28 days, with tumor growth measured every 3 or 4 days.
(§2) Figure 3 HHT inhibits tumor growth in a ccRCC tumorgraft model A-F, Tumorgraft lines were treated with vehicle control, HHT (0.7 mg/kg), rapamycin (0.5 mg/kg), (or the combination, where indicated) and tumor growth was measured on the indicated days. Day 0 represents the first day of treatment.
(§3) Tumorgrafts were generated and propagated as described previously, with tumor samples implanted subcutaneously into the flank of the mouse for drug trials. Briefly, 4- to 8-week-old NOD/SCID mice were anesthetized with isoflurane and implanted subcutaneously with 64 mm^3 tumor fragments (cohorts 2-20). Once tumors reached an average of at least ~250 mm^3, drug treatment was begun. The mice were treated with vehicle, 0.7 mg/kg homoharringtonine (HHT) via gavage twice daily, or 0.5 mg/kg rapamycin given by IP injection once every 48 hours. Tumor size (volume) was measured twice weekly and was obtained by multiplying tumor length, width, and depth using calipers. To assess toxicity, mouse weight was monitored once weekly.
Sections from tumors were stained with hematoxylin and eosin (H&E) as described previously.

[2] = Toxicity in tumorgraft-bearing mice (mouse weight, signs); type: in vivo; conditions: 0.7 mg/kg by gavage twice daily, XP26 and XP144 cohorts
Excerpt: C. and D. Average weight of XP26 and XP144 cohort mice in grams (g) taken at the indicated days prior to and over the course of the indicated drug treatment. Day 0 represents the first day of treatment.
as §3

advanced ccRCC = tested on: advanced ccRCC; parameters: method as in PMID 9157078; conditions: 14 patients with advanced ccRCC, 1996; cited from earlier work
XP144 tumorgraft line = assay: ccRCC tumorgraft model, line XP144; type: in vivo, NOD/SCID mice; conditions: 0.7 mg/kg by gavage twice daily
Protocol: as §1, §2
as §3, with “The mice were treated with vehicle, 0.7 mg/kg homoharringtonine (HHT) via gavage twice daily, or 0.5 mg/kg rapamycin given by IP injection once every 48 hours.” left out

[3] = parameters: method as in PMID 3598625; conditions: cited from earlier work

Question: For `COC(=O)C[C@](O)(CCCC(C)(C)O)C(=O)O[C@@H]1C(OC)=C[C@]23CCCN2CCc2cc4c(cc2[C@H]13)OCO4` [HHT, homoharringtonine], which “tumorgraft lines with tumor growth inhibited” value ([1]; 0.7 mg/kg by gavage twice daily, lines responding / lines tested) is on record?
Answer: Its value is 2/6.

Question: What about the “synergistic effects with rapamycin in the tumorgrafts” value ([1]; HHT 0.7 mg/kg plus rapamycin 0.5 mg/kg) of the same compound?
Answer: The value was “did not observe synergistic effects”.

Question: And the “histology of harvested tumors (H&E)” value ([1]; XP26 and XP144 cohorts)?
Answer: The value was “induced tumor cell necrosis”.

Question: And the “body weight of treated mice” value [2]?
Answer: The value was “maintained similar body weight compared to controls”.

Question: What about the “outcome of phase II trial” value (advanced ccRCC) of the same compound?
Answer: The value was “halted due to toxicity”.

Question: What about the “tumor weight smaller than vehicle-treated” value (XP144 tumorgraft line) of the same compound?
Answer: The value was 32%.

Question: And the “tumor growth inhibition (tumor volume) vs vehicle” value (XP144 tumorgraft line; ~28 days)?
Answer: The value was 43.0%.

Question: What about the blood-brain barrier penetration [3] of the same compound?
Answer: Its blood-brain barrier penetration is “penetrates the blood-brain barrier”.
